SMILES strings stand for the structures. Bridge positions count the residues as written; N and C are the ends. Square brackets hold non-standard residues; d marks the D form. Peptide text beside a SMILES is read from it. * marks the point of attachment. ξ: configuration not given here. Phe(3-CF3) = N[C@@H](Cc1cccc(C(F)(F)F)c1)C(=O)O; Phe(4-COOH) = N[C@@H](Cc1ccc(C(=O)O)cc1)C(=O)O; Bip = N[C@@H](Cc1ccc(-c2ccccc2)cc1)C(=O)O; NH(CH2)14COOH = O=C(O)CCCCCCCCCCCCCCN*; Phe(3-Me) = Cc1cccc(C[C@H](N)C(=O)O)c1; Val(3-OH) = CC(C)(O)[C@H](N)C(=O)O; 4Pal = N[C@@H](Cc1ccncc1)C(=O)O; Cha = N[C@@H](CC1CCCCC1)C(=O)O; Cit = NC(=O)NCCC[C@H](N)C(=O)O; Thr(3ξ) = CC(O)[C@H](N)C(=O)O; PEG4 = NCCOCCOCCOCCOCCC(=O)O; 12Ado = NCCCCCCCCCCCC(=O)O; hSer = N[C@@H](CCO)C(=O)O; Carboxymethyl = O=C(O)C*; Orn = NCCC[C@H](N)C(=O)O; Pra = C#CC[C@H](N)C(=O)O; Aun = NCCCCCCCCCCC(=O)O; Dab = NCC[C@H](N)C(=O)O; ξE = NC(CCC(=O)O)C(=O)O; Dap = NC[C@H](N)C(=O)O; AEEA = NCCOCCOCC(=O)O

In patent US20260022142A1, “MACROCYCLIC IMMUNOMODULATORS” (Bristol-Myers Squibb Company, priority 2022, published 2026) one finds IC50 data, which are given here for nine compounds.

The target in this experiment is T1, PD-1/PD-L1 interaction (PE-labeled human PD-L1-Ig binding to Jurkat cell line over-expressing human PD-1) (Homo sapiens, UniProt Q15116).
T1 construct: expressed in transfected cells; host or cells: Jurkat
T1 sequence (Q15116 25-288): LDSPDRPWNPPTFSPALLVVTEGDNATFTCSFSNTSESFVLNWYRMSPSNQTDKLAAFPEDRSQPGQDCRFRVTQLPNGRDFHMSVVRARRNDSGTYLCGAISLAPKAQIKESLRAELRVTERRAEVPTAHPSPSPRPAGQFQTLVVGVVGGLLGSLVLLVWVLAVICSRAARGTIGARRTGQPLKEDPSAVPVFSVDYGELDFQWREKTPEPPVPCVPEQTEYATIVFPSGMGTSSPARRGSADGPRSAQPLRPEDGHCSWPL
Description: Jurkat-PD-1 Cell Binding High-Content Screening Assay (CBA). The following applies: Jurkat cell line over-expressing human PD-1; PE-labeled PD-L1-Ig 20 nM final; read-out: Jurkat hPD1-PDL1 IC50. The experiment is classed as cell-based. In short, it runs like this: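 Jurkat cells over-expressing human PD-1 (8×10^3 per well, DMEM/10% FCS) preincubated with compound 2 h at 37° C, then PE-labeled human PD-L1-Ig (20 nM final) added for 1 h. Cells fixed with paraformaldehyde, Hoechst-stained, and bound fluorescence quantified by high-content imaging.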
A word on the IC50: it is the concentration at which inhibition is half-maximal. For the compound `Cc1cccc(C[C@@H]2NC(=O)[C@H](CC(=O)O)NC(=O)[C@H](Cc3ccc(OCC(=O)O)cc3)NC(=O)[C@H](CCCNC(=N)N)NC(=O)CSC[C@@H](C(=O)N[C@@H](CCO)C(=O)NCCCCCCCCCCCC(=O)O)NC(=O)[C@H](C(C)O)NC(=O)[C@H](C(C)C)NC(=O)[C@H](CC3CCCCC3)NC(=O)[C@H](CCN)NC(=O)[C@@H](CC(C)C)NC(=O)[C@H](CCCN)NC(=O)[C@H](CCCNC(N)=O)NC(=O)[C@H](Cc3ccc(-c4ccccc4)cc3)NC(=O)[C@H](C(C)C)NC2=O)c1` (stereo partly drawn) [Compound 3565] ({CH2CO}-RY(Carboxymethyl)D[Phe(3-Me)]V[Bip][Cit][Orn][dL][Dab][Cha]V[Thr(3ξ)]C[hSer][12Ado]-OH; thioether N-14), the half-inhibitory concentration (IC50) stood at 39.4 nM.
The figure for `CC(=O)NCC[C@@H]1NC(=O)[C@H](C(C)C)NC(=O)[C@H](CC2CCCCC2)NC(=O)[C@H](CCN)NC(=O)[C@@H](CC(C)C)NC(=O)[C@H](CCC(=O)O)NC(=O)[C@H](C(C)C)NC(=O)[C@H](Cc2ccc(-c3ccccc3)cc2)NC(=O)[C@H](CC(C)C)NC(=O)[C@H](Cc2c[nH]c3ccccc23)NC(=O)[C@H](CC(=O)O)NC(=O)[C@H](Cc2ccc(OCC(=O)O)cc2)NC(=O)[C@H](C(C)O)NC(=O)CSC[C@@H](C(=O)NCCOCCOCC(=O)NCCCCCCCCCCC(=O)O)NC1=O` (stereo partly drawn) [Compound 3710] ({CH2CO}-[Thr(3ξ)]Y(Carboxymethyl)DWL[Bip]VE[dL][Dab][Cha]V[Dab](Ac)C[AEEA][Aun]-OH; thioether N-14) is 82.2 nM.
The figure for `Cc1cccc(C[C@@H]2NC(=O)[C@H](CC(=O)O)NC(=O)[C@H](Cc3ccc(OCC(=O)O)cc3)NC(=O)[C@H](CCCNC(=N)N)NC(=O)CSC[C@@H](C(=O)N[C@@H](CCN)C(=O)NCCCCCCCCCCC(=O)O)NC(=O)[C@H](CCCNC(N)=O)NC(=O)[C@H](C(C)C)NC(=O)[C@H](CC3CCCCC3)NC(=O)[C@H](CCN)NC(=O)[C@@H](CC(C)C)NC(=O)[C@H](CCCN)NC(=O)[C@H](CCC(N)=O)NC(=O)[C@H](Cc3ccc(-c4ccccc4)cc3)NC(=O)[C@H](C(C)C)NC2=O)c1` [Compound 3305] ({CH2CO}-RY(Carboxymethyl)D[Phe(3-Me)]V[Bip]Q[Orn][dL][Dab][Cha]V[Cit]C[Dab][Aun]-OH; thioether N-14) is 6.5 nM.
The figure for `Cc1cccc(C[C@@H]2NC(=O)[C@H](CC(=O)O)NC(=O)[C@H](Cc3ccc(OCC(=O)O)cc3)NC(=O)[C@H](CCCNC(=N)N)NC(=O)CSC[C@@H](C(=O)N[C@@H](CCN)C(=O)NCCCCCCCCCCC(=O)O)NC(=O)[C@H](CCC(=O)O)NC(=O)[C@H](C(C)C)NC(=O)[C@H](CC3CCCCC3)NC(=O)[C@H](CCN)NC(=O)[C@@H](CC(C)C)NC(=O)[C@H](CCCN)NC(=O)[C@H](Cc3ccc(O)cc3)NC(=O)[C@H](Cc3ccc(-c4ccccc4)cc3)NC(=O)[C@H](CC(C)C)NC2=O)c1` [Compound 3342] ({CH2CO}-RY(Carboxymethyl)D[Phe(3-Me)]L[Bip]Y[Orn][dL][Dab][Cha]VEC[Dab][Aun]-OH; thioether N-14) is 38.3 nM.
In the case of `CC(C)C[C@@H]1NC(=O)CSC[C@@H](C(=O)N[C@@H](CCN)C(=O)NCCOCCOCCOCCOCCC(=O)NCCCCCCCCCCCCCCC(=O)O)NC(=O)[C@H](CCC(=O)O)NC(=O)[C@H](C(C)C)NC(=O)[C@H](CC2CCCCC2)NC(=O)[C@H](CCN)NC(=O)[C@@H](CC(C)C)NC(=O)[C@H](CCCN)NC(=O)[C@H](Cc2ccc(C(=O)O)cc2)NC(=O)[C@H](Cc2ccc(-c3ccccc3)cc2)NC(=O)[C@H](Cc2ccc(C(=O)O)cc2)NC(=O)[C@H](Cc2cccc(C(F)(F)F)c2)NC(=O)[C@H](CC(=O)O)NC(=O)[C@H](Cc2ccc(C(=O)O)cc2)NC1=O` [Compound 3910] ({CH2CO}-L[Phe(4-COOH)]D[Phe(3-CF3)][Phe(4-COOH)][Bip][Phe(4-COOH)][Orn][dL][Dab][Cha]VEC[Dab][PEG4]-{NH(CH2)14COOH}; thioether N-14), the IC50 is 597 nM.
The figure for `C#CC[C@H](NC(=O)COCCOCCNC(=O)[C@H](CCN)NC(=O)[C@@H]1CSCC(=O)N[C@@H](Cc2ccncc2)C(=O)N[C@@H](Cc2ccc(OCC(=O)O)cc2)C(=O)N[C@@H](CC(=O)O)C(=O)N[C@@H](Cc2c[nH]c3ccccc23)C(=O)N[C@@H](C(C)C)C(=O)N[C@@H](Cc2ccc(-c3ccccc3)cc2)C(=O)N[C@@H]([C@@H](C)CC)C(=O)N[C@@H](CCCN)C(=O)N[C@H](CC(C)C)C(=O)N[C@@H](CCN)C(=O)N[C@@H](CC(C)C)C(=O)N[C@@H](C(C)C)C(=O)N[C@@H]([C@@H](C)O)C(=O)N1)C(=O)N[C@@H](CCCNC(=N)N)C(=O)NCCCCCCCCCCC(=O)O` [Compound 1197] ({CH2CO}-[4Pal]Y(Carboxymethyl)DWV[Bip]I[Orn][dL][Dab]LVTC[Dab][AEEA][Pra]R[Aun]-OH; thioether N-14) is 14.8 nM; for `Cc1cccc(C[C@@H]2NC(=O)[C@H](CC(=O)O)NC(=O)[C@H](Cc3ccc(OCC(=O)O)cc3)NC(=O)[C@H](CCN)NC(=O)CSC[C@@H](C(=O)N[C@@H](CCN)C(=O)NCCOCCOCC(=O)NCCOCCOCC(=O)NCCOCCOCC(=O)NCCCCCCCCCCC(=O)O)NC(=O)[C@H](CCC(=O)O)NC(=O)[C@H](C(C)(C)O)NC(=O)[C@H](CC3CCCCC3)NC(=O)[C@H](CCN)NC(=O)[C@@H](CC(C)C)NC(=O)[C@H](CCCN)NC(=O)[C@H](Cc3ccc(OCC(=O)O)cc3)NC(=O)[C@H](Cc3ccc(-c4ccccc4)cc3)NC(=O)[C@H](Cc3ccc(OCC(=O)O)cc3)NC2=O)c1` [Compound 3771] ({CH2CO}-[Dab]Y(Carboxymethyl)D[Phe(3-Me)]Y(Carboxymethyl)[Bip]Y(Carboxymethyl)[Orn][dL][Dab][Cha][Val(3-OH)]EC[Dab][AEEA][AEEA][AEEA][Aun]-OH; thioether N-14) it is 4.7 nM; for `CC(C)C[C@H]1NC(=O)[C@H](CCCN)NC(=O)[C@H](CCCNC(N)=O)NC(=O)[C@H](Cc2ccc(-c3ccccc3)cc2)NC(=O)[C@H](C(C)C)NC(=O)[C@H](Cc2c[nH]c3ccccc23)NC(=O)[C@H](CC(=O)O)NC(=O)[C@H](Cc2ccc(OCC(=O)O)cc2)NC(=O)[C@H](C(C)O)NC(=O)CSC[C@@H](C(=O)N[C@@H](CCN)C(=O)NCCOCCOCC(=O)NCCCCCCCCCCC(=O)O)NC(=O)[C@H](C(C)O)NC(=O)[C@H](C(C)(C)O)NC(=O)[C@H](CC2CCCCC2)NC(=O)[C@H](CCN)NC1=O` (stereo partly drawn) [Compound 3736] ({CH2CO}-[Thr(3ξ)]Y(Carboxymethyl)DWV[Bip][Cit][Orn][dL][Dab][Cha][Val(3-OH)][Thr(3ξ)]C[Dab][AEEA][Aun]-OH; thioether N-14) it is 18.5 nM.
The result for `Cc1cccc(C[C@@H]2NC(=O)[C@H](CC(=O)O)NC(=O)[C@H](Cc3ccc(OCC(=O)O)cc3)NC(=O)[C@H](CN)NC(=O)CSC[C@@H](C(=O)N[C@@H](C)C(=O)NC(CCC(=O)O)C(=O)NCCOCCOCC(=O)NCCCCCCCCCCC(=O)O)NC(=O)[C@H](CN)NC(=O)[C@H](C(C)C)NC(=O)[C@H](CC3CCCCC3)NC(=O)[C@H](CCN)NC(=O)[C@@H](CC(C)C)NC(=O)[C@H](CCCN)NC(=O)[C@H](CCCNC(N)=O)NC(=O)[C@H](Cc3ccc(-c4ccccc4)cc3)NC(=O)[C@H](C(C)C)NC2=O)c1` (stereo partly drawn) [Compound 2616] ({CH2CO}-[Dap]Y(Carboxymethyl)D[Phe(3-Me)]V[Bip][Cit][Orn][dL][Dab][Cha]V[Dap]CA[ξE][AEEA][Aun]-OH; thioether N-14) reads 16.1 nM.
